Source: US20100297256A1, “METHODS AND COMPOSITIONS FOR INHIBITING INTEGRINS USING TELLURIUM-CONTAINING COMPOUNDS” (priority 2007, published 2010)

How the values were obtained:
C57B1/6N female mice = assay: Mouse plug in vivo migration and angiogenesis assay; details: 20 μg/mouse s.c. daily, 10 days, ECGS 500 μg/ml in Matrigel
Experimental: Matrigel was mixed with ECGS (500 μg/ml) and injected subcutaneously into C57B1/6N female mice on the ventral surface of the animal. During 10 days, every day, AS101 or SAS (20 μg/mouse in Matrigel) were injected subcutaneously. After 10 days, the plugs were removed with some surrounding tissue, fixed in 10% formalin, and paraffin-embedded. Sections were deparaffinized, and stained with hematoxylin and eosin dyes. In the most positive regions, stained cells were counted by a blinded observer. In each treatment group there were 5-6 mice, and the experiment was performed twice. Images from the sections were captured using a 10× objective of an Olympus microscope.

West Nile Virus (WNV) [1] = assay: West Nile Virus (WNV) cytopathic effect assay; type: cell-based; details: Vero cells
Experimental: Attached cells were washed with PBS without Ca^+2/Mg^+2. 100 μl of 0.2% crystal violet in 20% methanol was thereafter added and the cells were incubated for 10 minutes at room temperature. At the end of incubation time, cells were washed twice with double-distilled water and 100 μl of 10% SDS was added. Dye bound to the cell is released by SDS and the absorption by the dye is measured by colorimetry at 570 nm. The amount of stained cells is then considered to be proportional to the measured absorption by the dye
Vero cells were seeded at the density of 2×10^4 cells/well in 96-well plates, 20 hours before infection. The cells were treated with PBS or with various concentrations of AS101 before (1 hour or 5-10 minutes), or after (1 hour or 24 hours) virus inoculation. WNV at MOI (multiplicity of infection) of 0.005 PFU (plaque forming units) per cell was added to the cells and allowed undergo absorption for 1 hour at 37° C. The medium was removed and the cells were washed twice with PBS and overlaid with fresh medium. Cells were then incubated at 37° C. with 5% CO2 for 3-5 days. The development of a cytopathic effect was monitored by light microscopy.

West Nile Virus (WNV) [2] = assay: WNV plaque assay; type: cell-based; details: Vero cells, added 1 hour before inoculation
Experimental: Vero cells were seeded at a density of 1×10^6 cells in 10 cm dishes 20 hours prior to infection. WNV (5×10^3 PFU/ml, MOI=0.005 PFU/cell) was added to the cultures, and the plates were incubated for 1 hour at 37° C. with 5% CO2. After incubation, the medium was removed and the cells were washed 6 times with PBS and overlaid with fresh EMEM medium containing 4% FCS (fetal calf serum) and 1% (w/v) agar. Cells were then incubated at 37° C. with 5% CO2 for 3 days until plaques appeared, and then fixed and stained with a solution of 0.5% crystal violet in a mixture of formalin (1% v/v) and ethanol (1.65% v/v). Plaques were counted over a light box after removal of the agar overlay.

West Nile Virus (WNV) [3] = assay: WNV yield assay; type: cell-based; details: Vero cells, 5 μg/ml 1 hour before inoculation
Experimental: Vero cells were seeded as described above in 96-well plates. Cells were treated with AS101 and infected with WNV at MOI of 5 PFU/cell. The cells were washed six times with PBS, and fresh medium was added. The virus titer in harvested culture supernatants was determined by a microtitration assay as follows [Colley et al., in Colgan et al., Current Protocols in Immunology, John Wiley & Sons, New York, N.Y., 2003]: 10-fold serial dilutions of supernatants were used to infect Vero cells in 96-well plates. […] Viral titers (expressed as log 10 of TCID50/ml) were calculated according to the Spearman-Karber method [Hierholzer and Killington, in Mahy and Kangro, Virology Methods Manual, Academic Press, San Diego, Calif., 1996].

West Nile Virus (WNV) [4] = assay: Western blot analysis of WNV protein synthesis (WNV-E protein); type: cell-based; details: Vero cells
Experimental: Vero cells grown in 6-well plates (2×10^5 cells/well) were harvested and total cell extracts were prepared by suspension in 50 μl of ice-cold lysis buffer containing 50 mM Tris (pH 8.0), 150 mM NaCl, 1% NP-40, 0.1% SDS, 5 mM EDTA, 0.2 mM PMSF, 50 mM NaF, […] sodium vanadate, 5 mg/ml aprotinin and 5 mg/ml leupeptin. Cell lysates were boiled for 5 minutes and electrophoresed on 8% SDS-polyacrylamide gel, and were then transferred to a nitrocellulose membrane which was then incubated consecutively with a monoclonal antibody against the WNV envelope (WNV-E) protein and an anti-β-actin or anti-tubulin monoclonal antibody. The Nitrocellulose membranes were developed using horseradish peroxidase-conjugated secondary antibodies and the ECL detection system (Pierce, Rockford, Ill.). Quantitative evaluation of E protein calibrated against tubulin or β-actin was done by scanning and analysis using the Image-J program (www.//rsb.info.nih.gov/ij).

U937 cells = assay: Fluorescence-based flow cytometry analysis of cell death; set-up: species or system human
From the text: Fluorescence-based flow cytometry was used to measure the effect of tellurium-containing compounds on chemotherapy-induced cell death. Accumulation of cells in the sub-G1 fraction, increased proportion of annexin V-positive and propidium iodide-positive cells and increased caspase activity were each used as indicators of increased cell death, using standard procedures.

Akt = assay: Western blot analysis of Akt; type: cell-based, human
Experimental: Phosphorylation of Akt was determined by Western blot analysis.

VLA-4 = molecular target: T1, VLA-4 (Homo sapiens, UniProt P13612); assay: Western blot analysis of VLA-4 thiols; type: cell-based; details: U937 cultured on fibronectin
T1 construct: free thiols are present on the integrin VLA-4 in leukemic cells; endogenous in cells; host or cells: U937 leukemic cells
Experimental: In order to confirm that free thiols are present on the integrin VLA-4 in leukemic cells, and that these are blocked by AS101, U937 leukemic cells cultured on fibronectin or BSA were treated with BMCC (1-biotinamido-4-(4′-[maleimidoethylcyclohexane]-carboxamido)butane), a thiol blocker linked to biotin. Some cultures were treated with AS101. The α and β chains of the VLA-4 (α4β1 integrin) were then immunoprecipitated from the treated cells using either anti-α4 or anti-β1 antibodies and blotted with anti-biotin antibody. The presence of free thiols was indicated by bands observed by anti-biotin blotting. The presence of α4 and β1 chains was determined by blotting with anti-α4 and anti-β1 antibodies.

[5] = rats, intravenous and intramuscular administration; cited from earlier work
[6] = U937 on BSA, AS101 combined with ARA-C
[7] = U937 on fibronectin, AS101 combined with ARA-C
[8] = U937 on fibronectin, agent alone

T1 sequence (P13612 34-1032): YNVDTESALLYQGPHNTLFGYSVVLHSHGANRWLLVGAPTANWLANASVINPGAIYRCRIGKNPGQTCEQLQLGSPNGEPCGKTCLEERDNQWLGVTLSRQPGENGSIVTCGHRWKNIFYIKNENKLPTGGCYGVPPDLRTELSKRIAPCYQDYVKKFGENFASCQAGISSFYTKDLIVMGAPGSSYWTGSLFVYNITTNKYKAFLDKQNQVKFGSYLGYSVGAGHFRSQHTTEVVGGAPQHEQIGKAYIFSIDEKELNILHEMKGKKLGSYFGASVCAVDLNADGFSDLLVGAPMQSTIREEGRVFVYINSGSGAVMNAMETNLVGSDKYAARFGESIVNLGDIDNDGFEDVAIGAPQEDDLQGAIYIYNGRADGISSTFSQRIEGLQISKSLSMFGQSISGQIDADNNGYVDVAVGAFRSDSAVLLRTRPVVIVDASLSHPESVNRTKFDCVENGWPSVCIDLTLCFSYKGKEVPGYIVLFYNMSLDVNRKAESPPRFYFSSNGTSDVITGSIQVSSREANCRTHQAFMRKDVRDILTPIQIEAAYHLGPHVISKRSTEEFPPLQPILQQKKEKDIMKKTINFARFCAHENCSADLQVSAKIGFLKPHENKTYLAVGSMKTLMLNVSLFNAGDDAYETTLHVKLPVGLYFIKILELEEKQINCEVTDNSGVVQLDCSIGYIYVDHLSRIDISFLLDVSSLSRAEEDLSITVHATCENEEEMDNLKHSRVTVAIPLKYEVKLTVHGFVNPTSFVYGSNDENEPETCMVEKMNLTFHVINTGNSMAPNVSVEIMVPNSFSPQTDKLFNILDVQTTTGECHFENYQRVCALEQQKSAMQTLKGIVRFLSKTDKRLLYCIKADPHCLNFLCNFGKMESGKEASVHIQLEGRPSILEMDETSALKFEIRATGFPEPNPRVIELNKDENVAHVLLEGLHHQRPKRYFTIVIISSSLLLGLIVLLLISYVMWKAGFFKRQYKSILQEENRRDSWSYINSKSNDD
T1 sequence (P05556 21-798 partner): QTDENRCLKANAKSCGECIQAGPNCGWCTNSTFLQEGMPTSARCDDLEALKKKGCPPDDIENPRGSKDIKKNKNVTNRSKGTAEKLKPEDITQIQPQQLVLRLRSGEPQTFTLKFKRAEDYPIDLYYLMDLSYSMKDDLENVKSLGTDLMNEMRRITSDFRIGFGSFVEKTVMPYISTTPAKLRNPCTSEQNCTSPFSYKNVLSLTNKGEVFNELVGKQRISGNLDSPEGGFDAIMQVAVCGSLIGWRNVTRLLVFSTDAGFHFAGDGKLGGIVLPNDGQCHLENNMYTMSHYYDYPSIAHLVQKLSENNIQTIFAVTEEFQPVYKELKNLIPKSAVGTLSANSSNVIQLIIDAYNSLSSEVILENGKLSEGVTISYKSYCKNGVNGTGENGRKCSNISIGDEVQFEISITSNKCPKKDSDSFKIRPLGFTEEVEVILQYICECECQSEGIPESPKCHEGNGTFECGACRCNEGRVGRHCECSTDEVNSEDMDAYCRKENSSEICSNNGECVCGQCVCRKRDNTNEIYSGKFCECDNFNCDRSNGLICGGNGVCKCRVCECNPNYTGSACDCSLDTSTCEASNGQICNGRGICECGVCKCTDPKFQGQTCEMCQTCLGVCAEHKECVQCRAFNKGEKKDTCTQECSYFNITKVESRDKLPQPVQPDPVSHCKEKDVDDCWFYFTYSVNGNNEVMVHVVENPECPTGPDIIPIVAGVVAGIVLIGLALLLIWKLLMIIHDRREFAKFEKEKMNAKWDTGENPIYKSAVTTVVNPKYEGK

Cl[TeH]1(Cl)(Cl)OCCO1 [AS101, ammonium trichloro(dioxyethylene-O,O′)tellurate]
endothelial cell invasion and migration into Matrigel plug (angiogenesis) (C57B1/6N female mice): inhibit endothelial cell invasion and migration | WNV cytopathic effect (West Nile Virus (WNV) [1]; 2.5 μg/ml added 5-10 minutes before inoculation): no cytopathic effect is observed | viability of WNV-infected cells (crystal violet) (West Nile Virus (WNV) [1]; 72 hours after infection): dose-dependent protective effect | WNV cytopathic effect (West Nile Virus (WNV) [1]; added 1 hour or 24 hours after inoculation, data not shown): did not exhibit such an inhibitory effect | WNV-induced plaque formation (West Nile Virus (WNV) [2]): dose-dependent protective effect against the plaque formation | decrease in virus yield (West Nile Virus (WNV) [3]; 24 hours post-infection): 1 log | decrease in virus yield (West Nile Virus (WNV) [3]; 36 hours post-infection): 2 log | level of cell-bound WNV-E protein (virus attachment) (West Nile Virus (WNV) [4]; 5 μg/ml, 5 and 15 minutes after virus adsorption): marked reduced the level of WNV-E protein | inhibition of virus protein (WNV-E) expression vs untreated cells (West Nile Virus (WNV) [4]; 2 and 5 μg/ml, 8 hours after infection): 2-3 fold | caspase-3 activity, ARA-C and AS101 in combination vs ARA-C alone (U937 cells; U937 on BSA): the same degrees of caspase-3 activity | percentage of annexin V-positive and propidium iodide-positive cells (U937 cells; [6]): only slightly above the percentage obtained with ARA-C alone | percentage of cells in the sub-G1 fraction (U937 cells; [6]): did not provide significantly different results than ARA-C alone | percentage of annexin V-positive and propidium iodide-positive cells (U937 cells; [7]): increased the percentage of annexin V-positive and propidium iodide-positive cells considerably | percentage of cells in the sub-G1 fraction (U937 cells; [7]): over 80% | percentage of cells with high caspase-3 activity (U937 cells; [7]): high percentage of cells with increased caspase-3 activity | percentage of annexin V-positive and propidium iodide-positive cells (U937 cells; [8]): no effect alone | percentage of cells in the sub-G1 fraction (U937 cells; [8]): no effect alone | percentage of cells with high caspase-3 activity (U937 cells; [8]): little or no effect | total amounts of Akt (Akt; U937): remained unchanged | level of phosphorylated Akt (pAkt) (Akt; U937 on fibronectin, dose-dependent): reduced the level of phosphorylated Akt | free thiols on the α chain of VLA-4 (BMCC labelling) (VLA-4): eliminated these free thiols | LD50 relative to the immunologically effective dose [5]: 500-1000 folds

O=C1O[Te]23OC(=O)C(O2)C2O[Te]4(OC(=O)C(O4)C1O3)OC2=O [SAS, [TeO4(COCH)2]2]
endothelial cell invasion and migration into Matrigel plug (angiogenesis) (C57B1/6N female mice): inhibit endothelial cell invasion and migration
